Laboratory results from patent US20080261936A1, “METHODS OF REDUCING THE BODY WEIGHT OF A SUBJECT BY ADMINISTERING A FATTY ACID ESTER OF AN ESTROGEN OR ESTROGEN DERIVATIVE IN AN OIL AND COMPOSITIONS CONTAINING THE SAME” (Manhattan Pharmaceuticals, Inc., priority 2006, published 2008).
Where “and” joins values, the source holds several entries; their conditions need not be identical. Identical values can stand only once.

Assays:
[1] = Compatibility/stability of oleoyl-estrone in oil systems (appearance/color, potency, related substances); format: physicochemical
Method: The compatibility of oleoyl-estrone in various oil systems was also assessed. The respective stability of oleoyl-estrone in various oils was assessed following storage at (A) 25° C./60% and relative humidity (RH), (B) 40° C./75% RH, (C) 50° C. and (D) 60° C. in canola oil, safflower oil, Captex and a 2:1 Captex: Labrafil mixture. The stability test methods include appearance/color, potency, and related substances (e.g. impurities or degradant in the oleoyl-estrone and oil mixture).

[2] = Oil evaluation: solubility behavior of oleoyl-estrone, 200 mg/g in single oils; format: physicochemical
Method: An oil evaluation was done to determine the solubility behavior of oleoyl-estrone as a function of type of oil, concentration and temperature. The solubility of oleoyl-estrone was evaluated at concentrations of 60 mg/g and 200 mg/g. […]

[3] = in CAPTEX, Two Weeks 25° C./60% RH
[4] = in CAPTEX, Two Weeks 40° C./75% RH
[5] = in SAFFLOWER, One Week 25° C./60% RH
[6] = in SAFFLOWER, One Week 40° C./75% RH
[7] = in SAFFLOWER, Three Weeks 25° C./60% RH
[8] = in SAFFLOWER, Three Weeks 40° C./75% RH
[9] = in SAFFLOWER, Three Weeks 50° C.
[10] = in SAFFLOWER, Three Weeks 60° C.
[11] = in SAFFLOWER, Two Weeks 25° C./60% RH
[12] = in SAFFLOWER, Two Weeks 40° C./75% RH
[13] = in the mixture of Captex and Labrafil stored at 50° C. and 60° C., three weeks
[14] = 200 mg/g in Captex 300-6C at 40° C.
[15] = 200 mg/g in Captex 300 EP at 40° C.
[16] = 200 mg/g in Labrafil 1944 CS at 40° C.
[17] = 200 mg/g in Safflower at 40° C.

- Purity Assay ([1]; in CAPTEX, Time Zero): 105.6% and 105.3% and 104.1% and 106.4%
- Mean Purity Assay [1, 3]: 102.8%
- Purity Assay [1, 3]: 104.8% and 100.8%
- Mean Purity Assay [1, 4]: 96.4%
- Purity Assay [1, 4]: 98.5% and 94.3%
- Mean Purity Assay ([1]; in CAPTEX, Two Weeks 50° C.): 97.9%
- Purity Assay ([1]; in CAPTEX, Two Weeks 50° C.): 96.5% and 99.3%
- Mean Purity Assay ([1]; in CAPTEX, Two Weeks 60° C.): 102.4%
- Purity Assay ([1]; in CAPTEX, Two Weeks 60° C.): 105.6% and 99.1%
- Mean Purity Assay [1, 5]: 99.1%
- Purity Assay [1, 5]: 99.4% and 98.7%
- Mean Purity Assay [1, 6]: 100.9%
- Purity Assay [1, 6]: 102.6% and 99.2%
- Mean Purity Assay ([1]; in SAFFLOWER, One Week 50° C.): 100.7%
- Purity Assay ([1]; in SAFFLOWER, One Week 50° C.): 100.9% and 100.4%
- Mean Purity Assay ([1]; in SAFFLOWER, One Week 60° C.): 100.8%
- Purity Assay ([1]; in SAFFLOWER, One Week 60° C.): 99.5% and 102.0%
- Mean Purity Assay [1, 7]: 105.7%
- Purity Assay [1, 7]: 108.1% and 103.3%
- Mean Purity Assay [1, 8]: 104.6%
- Purity Assay [1, 8]: 102.7% and 106.5%
- Mean Purity Assay [1, 9]: 98.7%
- Purity Assay [1, 9]: 101.0% and 96.4%
- Mean Purity Assay [1, 10]: 105.1%
- Purity Assay [1, 10]: 103.7% and 106.5%
- Mean Purity Assay ([1]; in SAFFLOWER, Time Zero): 103.8%
- Purity Assay ([1]; in SAFFLOWER, Time Zero): 102.1% and 104.8% and 104.7% and 103.5%
- Mean Purity Assay [1, 11]: 101.6%
- Purity Assay [1, 11]: 105.1% and 98.1%
- Mean Purity Assay [1, 12]: 100.2%
- Purity Assay [1, 12]: 98.1% and 102.3%
- Mean Purity Assay ([1]; in SAFFLOWER, Two Weeks 50° C.): 96.7%
- Purity Assay ([1]; in SAFFLOWER, Two Weeks 50° C.): 98.3% and 95.1%
- Mean Purity Assay ([1]; in SAFFLOWER, Two Weeks 60° C.): 98.1%
- Purity Assay ([1]; in SAFFLOWER, Two Weeks 60° C.): 99.2% and 96.9%
- Degradation of oleoyl-estrone ([1]; in canola oil, safflower oil or Captex, three weeks at 25° C./60% RH, 40° C./75% RH, 50° C. and 60° C.): no measurable degradation
- Degradation of oleoyl-estrone [1, 13]: measurable degradation
- Levels of estrone [1, 13]: increased significantly
- Solubility Cycled to 22° C. for 24 hr prior to 5° C. cycle for 96 hr ([2]; 200 mg/g in Canola): Dissolved
- Solubility After 24 hr ([2]; 200 mg/g in Canola at 40° C.): Dissolved
- Solubility After 96 hr ([2]; 200 mg/g in Canola at 40° C.): Dissolved
- Solubility Cycled to 22° C. for 24 hr prior to 5° C. cycle for 96 hr ([2]; 200 mg/g in Captex 300-6C): Dissolved
- Solubility After 24 hr [2, 14]: Dissolved
- Solubility After 96 hr [2, 14]: Dissolved
- Solubility Cycled to 22° C. for 24 hr prior to 5° C. cycle for 96 hr ([2]; 200 mg/g in Captex 300 EP): Dissolved
- Solubility After 24 hr [2, 15]: Dissolved
- Solubility After 96 hr [2, 15]: Dissolved
- Solubility Cycled to 22° C. for 24 hr prior to 5° C. cycle for 96 hr ([2]; 200 mg/g in Corn): Precipitated at 5 °C after 72 hr
- Solubility After 24 hr ([2]; 200 mg/g in Corn at 40° C.): Dissolved
- Solubility After 96 hr ([2]; 200 mg/g in Corn at 40° C.): Dissolved
- Solubility Cycled to 22° C. for 24 hr prior to 5° C. cycle for 96 hr ([2]; 200 mg/g in Labrafac): Precipitated at 5 °C after 4 hr
- Solubility After 24 hr ([2]; 200 mg/g in Labrafac at 40° C.): Dissolved
- Solubility After 96 hr ([2]; 200 mg/g in Labrafac at 40° C.): Dissolved
- Solubility Cycled to 22° C. for 24 hr prior to 5° C. cycle for 96 hr ([2]; 200 mg/g in Labrafil 1944 CS): Precipitated at 5 °C after 4 hr
- Solubility After 24 hr [2, 16]: Dissolved
- Solubility After 96 hr [2, 16]: Dissolved
- Solubility Cycled to 22° C. for 24 hr prior to 5° C. cycle for 96 hr ([2]; 200 mg/g in Labrafil M 125CS): Precipitated at 5 °C after 24 hr
- Solubility After 96 hr ([2]; 200 mg/g in Labrafil M 125CS at 40° C.): Dissolved
- Solubility Cycled to 22° C. for 24 hr prior to 5° C. cycle for 96 hr ([2]; 200 mg/g in Labrasol): Precipitated at RT not tested
- Solubility After 24 hr ([2]; 200 mg/g in Labrasol at 40° C.): Dissolved
- Solubility After 96 hr ([2]; 200 mg/g in Labrasol at 40° C.): Dissolved
- Solubility Cycled to 22° C. for 24 hr prior to 5° C. cycle for 96 hr ([2]; 200 mg/g in Olive): Precipitated at 5 °C after 4 hr
- Solubility After 24 hr ([2]; 200 mg/g in Olive at 40° C.): Dissolved
- Solubility After 96 hr ([2]; 200 mg/g in Olive at 40° C.): Dissolved
- Solubility Cycled to 22° C. for 24 hr prior to 5° C. cycle for 96 hr ([2]; 200 mg/g in Safflower): Dissolved
- Solubility After 24 hr [2, 17]: Dissolved
- Solubility After 96 hr [2, 17]: Dissolved
- Solubility Cycled to 22° C. for 24 hr prior to 5° C. cycle for 96 hr ([2]; 200 mg/g in Sesame): Precipitated at 5 °C after 5 hr
- Solubility After 24 hr ([2]; 200 mg/g in Sesame at 40° C.): Dissolved
- Solubility After 96 hr ([2]; 200 mg/g in Sesame at 40° C.): Dissolved
- Solubility Cycled to 22° C. for 24 hr prior to 5° C. cycle for 96 hr ([2]; 200 mg/g in Soybean): Dissolved
- Solubility After 24 hr ([2]; 200 mg/g in Soybean at 40° C.): Dissolved
- Solubility After 96 hr ([2]; 200 mg/g in Soybean at 40° C.): Dissolved
- Solubility and thermal stability in single oils (summary) ([2]; in safflower oil, soybean oil, canola oil and the medium chain triglycerides): soluble and thermally stable
Structure (SMILES): CCCCCCCC/C=C\CCCCCCCC(=O)Oc1ccc2c(c1)CC[C@@H]1[C@@H]2CC[C@]2(C)C(=O)CC[C@@H]12 [oleoyl-estrone, [3(Z)]-3-[(1-oxo-9-octadecenyl)oxy]-estra-1,3,5(10)-trien-17-one]
